What was measured:
Type in all cases: in vivo
[1] = tested on: Zea mays (ZEAMX); test: B2 post-emergence herbicidal activity; set-up: key: 5=total damage to plant; 0=no damage to plant; conditions: Test 2a, rate 1000 g/ha, evaluated after 13 days, score 0-5 (5=total damage, 0=no damage)
Procedure: (§1) Seeds of a variety of test species were sown in standard soil in pots: Triticum aestivium (TRZAW), Avena fatua (AVEFA), Alopecurus myosuroides (ALOMY), Echinochloa crus-galli (ECHCG), Lolium perenne (LOLPE), Zea mays (ZEAMX), Abutilon theophrasti (ABUTH), Amaranthus retroflexus (AMARE) and Setaria faberi (SETFA). After 8 days cultivation (post-emergence) under controlled conditions in a glasshouse (at 24/16° C., day/night; 14 hours light; 65% humidity), the plants were sprayed with an aqueous spray solution derived from the formulation of the technical active ingredient in acetone/water (50:50) solution containing 0.5% Tween 20 (polyoxyethelyene sorbitan monolaurate, CAS RN 9005-64-5). The test plants were then grown in a glasshouse under controlled conditions (at 24/16° C., day/night; 14 hours light; 65% humidity) and watered twice daily. After 13 days, the test was evaluated (5=total damage to plant; 0=no damage to plant).

[2] = tested on: Lolium perenne (LOLPE); test: B2 post-emergence herbicidal activity; set-up: key: 5=total damage to plant; 0=no damage to plant; conditions: rate 1000 g/ha, evaluated after 13 days, score 0-5 (5=total damage, 0=no damage)
Procedure: as §1

[3] = tested on: Amaranthus retroflexus (AMARE); test: B2 post-emergence herbicidal activity; set-up: key: 5=total damage to plant; 0=no damage to plant; conditions: Test 2a, rate 1000 g/ha, evaluated after 13 days, score 0-5 (5=total damage, 0=no damage)
Procedure: as §1

[4] = tested on: Echinochloa crus-galli (ECHCG); test: B2 post-emergence herbicidal activity; set-up: key: 5=total damage to plant; 0=no damage to plant; conditions: rate 1000 g/ha, evaluated after 13 days, score 0-5 (5=total damage, 0=no damage)
Procedure: as §1

[5] = tested on: Setaria faberi (SETFA); test: B2 post-emergence herbicidal activity; set-up: key: 5=total damage to plant; 0=no damage to plant; conditions: rate 1000 g/ha, evaluated after 13 days, score 0-5 (5=total damage, 0=no damage)
Procedure: as §1

[6] = tested on: Setaria faberi (SETFA); test: B1 pre-emergence herbicidal activity; set-up: key to Pre-emergence herbicidal activity, SETFA: 5=total damage to plant; 0=no damage to plant; conditions: rate 1000 g/ha, evaluated after 13 days, score 0-5 (5=total damage, 0=no damage); for Pre-emergence herbicidal activity, SETFA: Test 1b
Procedure: as §1, with “After” for “After 8 days”, “for one day (pre-emergence)” for “(post-emergence)”

[7] = tested on: Echinochloa crus-galli (ECHCG); test: B1 pre-emergence herbicidal activity; set-up: key to Pre-emergence herbicidal activity, ECHCG: 5=total damage to plant; 0=no damage to plant; conditions: rate 1000 g/ha, evaluated after 13 days, score 0-5 (5=total damage, 0=no damage); for Pre-emergence herbicidal activity, ECHCG: Test 1b
Procedure: as §1, with “After” for “After 8 days”, “for one day (pre-emergence)” for “(post-emergence)”

[8] = tested on: Zea mays (ZEAMX); test: B1 pre-emergence herbicidal activity; set-up: key: 5=total damage to plant; 0=no damage to plant; conditions: Test 1a, rate 1000 g/ha, evaluated after 13 days, score 0-5 (5=total damage, 0=no damage)
Procedure: as §1, with “After” for “After 8 days”, “for one day (pre-emergence)” for “(post-emergence)”

[9] = tested on: Lolium perenne (LOLPE); test: B1 pre-emergence herbicidal activity; set-up: key: 5=total damage to plant; 0=no damage to plant; conditions: rate 1000 g/ha, evaluated after 13 days, score 0-5 (5=total damage, 0=no damage); for Pre-emergence herbicidal activity, LOLPE: Test 1b
Procedure: as §1, with “After” for “After 8 days”, “for one day (pre-emergence)” for “(post-emergence)”

[10] = tested on: Amaranthus retroflexus (AMARE); test: B1 pre-emergence herbicidal activity; set-up: key: 5=total damage to plant; 0=no damage to plant; conditions: Test 1a, rate 1000 g/ha, evaluated after 13 days, score 0-5 (5=total damage, 0=no damage)
Procedure: as §1, with “After” for “After 8 days”, “for one day (pre-emergence)” for “(post-emergence)”

[11] = tested on: Abutilon theophrasti (ABUTH); test: B1 pre-emergence herbicidal activity; set-up: key: 5=total damage to plant; 0=no damage to plant; conditions: Test 1a, rate 1000 g/ha, evaluated after 13 days, score 0-5 (5=total damage, 0=no damage)
Procedure: as §1, with “After” for “After 8 days”, “for one day (pre-emergence)” for “(post-emergence)”

[12] = tested on: Abutilon theophrasti (ABUTH); test: B2 post-emergence herbicidal activity; conditions: Test 2a, rate 1000 g/ha, evaluated after 13 days, score 0-5 (5=total damage, 0=no damage)
Procedure: as §1

[13] = tested on: Alopecurus myosuroides (ALOMY); test: B2 post-emergence herbicidal activity; set-up: key: 5=total damage to plant; 0=no damage to plant; conditions: Test 2b, rate 1000 g/ha, evaluated after 13 days, score 0-5 (5=total damage, 0=no damage)
Procedure: as §1

[14] = tested on: Avena fatua (AVEFA); test: B2 post-emergence herbicidal activity; set-up: key: 5=total damage to plant; 0=no damage to plant; conditions: Test 2b, rate 1000 g/ha, evaluated after 13 days, score 0-5 (5=total damage, 0=no damage)
Procedure: as §1

[15] = tested on: Triticum aestivium (TRZAW); test: B2 post-emergence herbicidal activity; set-up: key: 5=total damage to plant; 0=no damage to plant; conditions: Test 2b, rate 1000 g/ha, evaluated after 13 days, score 0-5 (5=total damage, 0=no damage)
Procedure: as §1

[16] = tested on: Alopecurus myosuroides (ALOMY); test: B1 pre-emergence herbicidal activity; set-up: key: 5=total damage to plant; 0=no damage to plant; conditions: Test 1b, rate 1000 g/ha, evaluated after 13 days, score 0-5 (5=total damage, 0=no damage)
Procedure: as §1, with “After” for “After 8 days”, “for one day (pre-emergence)” for “(post-emergence)”

[17] = tested on: Avena fatua (AVEFA); test: B1 pre-emergence herbicidal activity; set-up: key: 5=total damage to plant; 0=no damage to plant; conditions: Test 1b, rate 1000 g/ha, evaluated after 13 days, score 0-5 (5=total damage, 0=no damage)
Procedure: as §1, with “After” for “After 8 days”, “for one day (pre-emergence)” for “(post-emergence)”

[18] = tested on: Triticum aestivium (TRZAW); test: B1 pre-emergence herbicidal activity; set-up: key: 5=total damage to plant; 0=no damage to plant; conditions: Test 1b, rate 1000 g/ha, evaluated after 13 days, score 0-5 (5=total damage, 0=no damage)
Procedure: as §1, with “After” for “After 8 days”, “for one day (pre-emergence)” for “(post-emergence)”

| Structure (SMILES) | Control of weed species after post-emergence application, LOLPE ([2]; Test 2b) | Control of weed species after post-emergence application, ALOMY [13] | Control of weed species after post-emergence application, ECHCG ([4]; Test 2b) | Control of weed species after post-emergence application, AVEFA [14] | Control of weed species after post-emergence application, TRAZW [15] | Control of weed species after post-emergence application, SETFA ([5]; Test 2b) | Pre-emergence herbicidal activity, SETFA [6] | Pre-emergence herbicidal activity, ECHCG [7] | Pre-emergence herbicidal activity, LOLPE [9] | Pre-emergence herbicidal activity, ALOMY [16] | Pre-emergence herbicidal activity, AVEFA [17] | Pre-emergence herbicidal activity, TRAZW [18] | further results |
| --- | --- | --- | --- | --- | --- | --- | --- | --- | --- | --- | --- | --- | --- |
| Cc1nc(-c2cncc(F)c2)ncc1NC(=O)OC(C)(C)C [Compound E1, tert-butyl N-[2-(5-fluoro-3-pyridyl)-4-methyl-pyrimidin-5-yl]carbamate] | – | – | – | – | – | – | – | – | – | – | – | – | Control of weed species after post-emergence application, ZEAMX [1]: 5; Control of weed species after post-emergence application, LOLPE ([2]; Test 2a): 2; Control of weed species after post-emergence application, AMARE [3]: 2; Control of weed species after post-emergence application, ECHCG ([4]; Test 2a): 4; Control of weed species after post-emergence application, SETFA ([5]; Test 2a): 5; Control of weed species after pre-emergence application, SETFA ([6]; Test 1a): 4; Control of weed species after pre-emergence application, ECHCG ([7]; Test 1a): 4; Control of weed species after pre-emergence application, ZEAMX [8]: 5; Control of weed species after pre-emergence application, LOLPE ([9]; Test 1a): 1; Control of weed species after pre-emergence application, AMARE [10]: 0; Control of weed species after pre-emergence application, ABUTH [11]: 0; Control of weed species after post-emergence application, ABUTH [12]: 1 |
| CN(C)C(=O)Nc1cnc(-c2cncc(F)c2)nc1C(F)(F)F [Compound E13] | 3 | 1 | 4 | 3 | 2 | 5 | 4 | 3 | 1 | 0 | 1 | 0 | – |
| CC(C)OC(=O)Nc1cnc(-c2cncc(F)c2)nc1C(F)(F)F [Compound E14, isopropyl N-[2-(5-fluoro-3-pyridyl)-4-(trifluoromethyl)pyrimidin-5-yl]carbamate] | 3 | 0 | 4 | 3 | 1 | 5 | 5 | 3 | 0 | 0 | 1 | 0 | – |
| CC(C)COC(=O)Nc1cnc(-c2cncc(F)c2)nc1C(F)(F)F [Compound E15] | 3 | 1 | 5 | 4 | 2 | 5 | 5 | 5 | 1 | 0 | 2 | 0 | – |
| O=C1OCCN1c1cnc(-c2cncc(F)c2)nc1C(F)(F)F [Compound E17] | 1 | 0 | 3 | 2 | 1 | 4 | 4 | 3 | 0 | 0 | 0 | 0 | – |
| CCC(C)OC(=O)Nc1cnc(-c2cncc(F)c2)nc1C(F)(F)F (stereo not drawn) [Compound E18] | 1 | 0 | 4 | 1 | 0 | 5 | 5 | 2 | 0 | 0 | 1 | 1 | – |
| CCOC(=O)Nc1cnc(-c2cncc(F)c2)nc1C(F)(F)F [Compound E19] | 3 | 0 | 5 | 3 | 1 | 5 | 4 | 3 | 1 | 0 | 0 | 0 | – |
| CC(C)(C)OC(=O)Nc1cnc(-c2cncc(F)c2)nc1OCc1ccccc1 [Compound E20] | 0 | 0 | 0 | 0 | 0 | 1 | 0 | 0 | 0 | 0 | 0 | 0 | – |
| COC(=O)Nc1cnc(-c2cncc(F)c2)nc1C(F)(F)F [Compound E21] | 2 | 1 | 5 | 4 | 1 | 4 | 4 | 3 | 0 | 1 | 0 | 1 | – |
| CC(C)OC(=O)N(C(=O)OC(C)C)c1cnc(-c2cncc(F)c2)nc1C(F)(F)F [Compound E22] | 4 | 0 | 5 | 0 | 4 | 1 | 4 | 3 | 0 | 0 | 0 | 0 | – |
